{
  "source": "ChEMBL document CHEMBL5360649",
  "about": "“Potential Broad-Spectrum Antimicrobial, Wound Healing, and Disinfectant Cationic Peptide Crafted from Snake Venom” (J Med Chem, 2023)",
  "key": {"Klebsiella pneumoniae [1]": {"test_system": "Klebsiella pneumoniae", "assay": "Antibacterial activity against carbapenem resistance Klebsiella pneumoniae ATCC BAA-1705 assessed as inhibition of bacterial growth incubated for 0.5 to 8.5 hrs by microtiter plate reader analysis", "assay_type": "functional, organism-based", "conditions": "dose 1.25-40 µM, time 0.5-8.5 hrs"}, "RAW264.7": {"test_system": "RAW264.7", "assay": "Antiinflammatory activity in mouse RAW264.7 cells assessed as increase in TGF-beta1 expression at 10 uM incubated for 24 hrs by radioimmunoprecipitation based dot-plot analysis", "assay_type": "functional, cell-based"}, "Staphylococcus aureus [2]": {"test_system": "Staphylococcus aureus", "assay": "Induction of morphological changes in methicillin-resistant Staphylococcus aureus assessed as membrane damage at MIC concentration incubated for 60 mins by SEM analysis", "assay_type": "functional, organism-based"}, "Klebsiella pneumoniae [3]": {"test_system": "Klebsiella pneumoniae", "assay": "Induction of morphological changes in carbapenem resistant Klebsiella pneumoniae ATCC BAA-1705 assessed as cellular defacement at MIC concentration incubated for 60 mins by SEM analysis", "assay_type": "functional, organism-based"}, "Escherichia coli [4]": {"test_system": "Escherichia coli", "assay": "Induction of morphological changes in Escherichia coli at MIC concentration incubated for 6 hrs by SEM analysis", "assay_type": "functional, organism-based"}, "Klebsiella pneumoniae [5]": {"test_system": "Klebsiella pneumoniae", "assay": "Antibiofilm activity against Klebsiella pneumoniae assessed as biofilm eradication at 0.5 times of MIC incubated for 24 hrs by CV staining based analysis relative to control", "assay_type": "functional"}, "[6]": {"assay": "Cytotoxicity against NMDF cells assessed as viable cells at 12.5 uM incubated for 24 hrs by MTT assay relative to control", "assay_type": "toxicity, cell-based", "conditions": "mouse, read-out: Activity"}, "Cell membrane [7]": {"test_system": "Cell membrane", "assay": "Induction of outer membrane permeabilization in Pseudomonas aeruginosa at 0.5 to 1 times of MIC incubated for 5 to 20 mins by fluorescence based NPN uptake assay", "assay_type": "subcellular", "conditions": "time 5-20 min"}, "Klebsiella pneumoniae [8]": {"test_system": "Klebsiella pneumoniae", "assay": "Antibacterial activity against Klebsiella pneumoniae assessed as cell division block by measuring cellular elongation at 0.5 to 1 times of MIC incubated for 30 mins by SYTO9/PI staining based fluorescence microscopic analysis", "assay_type": "functional, organism-based"}, "Staphylococcus aureus [9]": {"test_system": "Staphylococcus aureus", "assay": "Antibiofilm activity against preformed biofilm in methicillin-resistant Staphylococcus aureus assessed as decrease in cell viability at 0.5 times of MIC incubated overnight by MTT assay relative to control", "assay_type": "functional"}, "NMDF": {"test_system": "NMDF", "assay": "Induction of cell migration in NMDF cells at 10 uM incubated for 24 hrs by wound healing scratch/mirgation assay", "assay_type": "functional, cell-based", "conditions": "Mus musculus"}, "Escherichia coli [10]": {"test_system": "Escherichia coli", "assay": "Antibiofilm activity against Escherichia coli in the presence of Cl-", "assay_type": "functional, organism-based"}, "Cell membrane [11]": {"test_system": "Cell membrane", "assay": "Induction of inner membrane permeabilization in Escherichia coli assessed as increase in fluorescence at 0.5 to 1 times of MIC incubated for 60 mins by PI staining based fluorescence analysis", "assay_type": "subcellular"}, "Staphylococcus aureus [12]": {"test_system": "Staphylococcus aureus", "assay": "Induction of morphological changes in methicillin-resistant Staphylococcus aureus assessed as cellular destruction at MIC concentration incubated for 6 hrs by SEM analysis", "assay_type": "functional, organism-based"}, "Staphylococcus aureus [13]": {"test_system": "Staphylococcus aureus", "assay": "Antibiofilm activity against methicillin-resistant Staphylococcus aureus in the presence of Cl-", "assay_type": "functional, organism-based"}, "Klebsiella pneumoniae [14]": {"test_system": "Klebsiella pneumoniae", "assay": "Antibiofilm activity against preformed biofilm in Klebsiella pneumoniae assessed as decrease in cell viability at MIC incubated overnight by MTT assay relative to control", "assay_type": "functional"}, "Klebsiella pneumoniae [15]": {"test_system": "Klebsiella pneumoniae", "assay": "Antibiofilm activity against Klebsiella pneumoniae assessed as clearance of preformed biofilm at 1 times of MIC incubated for 24 hrs by CV staining based analysis relative to control", "assay_type": "functional"}, "[16]": {"assay": "Hemolytic activity in human RBC assessed as hemolysis at 25 uM incubated for 30 mins under shaking condition by multiplate reader analysis relative to control", "assay_type": "toxicity, cell-based, Erythrocyte", "conditions": "human red blood cells (RBC), read-out: Activity"}, "Escherichia coli [17]": {"test_system": "Escherichia coli", "assay": "Induction of morphological changes in Escherichia coli at MIC concentration incubated for 6 hrs by AFM analysis", "assay_type": "functional, organism-based"}, "Pseudomonas aeruginosa [18]": {"test_system": "Pseudomonas aeruginosa", "assay": "Antibacterial activity against patient-derived Pseudomonas aeruginosa assessed as inhibition of bacterial growth incubated for 24 hrs by CLSI protocol based microdilution method", "assay_type": "functional"}, "Pseudomonas aeruginosa [19]": {"test_system": "Pseudomonas aeruginosa", "assay": "Bactericidal activity against patient-derived Pseudomonas aeruginosa assessed as reduction in bacterial growth incubated for 24 hrs by Mueller Hinton Agar based plate analysis", "assay_type": "functional"}, "Pseudomonas aeruginosa [20]": {"test_system": "Pseudomonas aeruginosa", "assay": "Induction of morphological changes in Pseudomonas aeruginosa at MIC concentration incubated for 60 mins by SEM analysis", "assay_type": "functional, organism-based"}, "Staphylococcus aureus [21]": {"test_system": "Staphylococcus aureus", "assay": "Antibiofilm activity against methicillin-resistant Staphylococcus aureus assessed as biofilm eradication at 0.5 times of MIC incubated for 24 hrs by CV staining based analysis relative to control", "assay_type": "functional"}, "U-937 [22]": {"test_system": "U-937", "assay": "Immunomodulatory activity in human U-937 cells assessed as reduction in LPS-induced TNF-alpha expression level incubated for 24 hrs by radioimmunoprecipitation based dot-plot analysis", "assay_type": "functional, cell-based", "conditions": "dose 5-10 µM"}, "Escherichia coli [23]": {"test_system": "Escherichia coli", "assay": "Induction of morphological changes in Escherichia coli assessed as cellular destruction at MIC concentration incubated for 6 hrs by AFM analysis", "assay_type": "functional, organism-based"}, "[24]": {"assay": "Stability in human serum assessed as half-life at 1 mM by HPLC analysis", "assay_type": "ADME, cell-free"}, "Staphylococcus aureus [25]": {"test_system": "Staphylococcus aureus", "assay": "Antibacterial activity against methicillin resistant Staphylococcus aureus assessed as inhibition of bacterial growth at 1.25 to 40 uM by microtiter plate reader analysis", "assay_type": "functional, organism-based", "conditions": "dose 1.25-40 µM, time 0.5-8.5 hrs, TDE = time-dependent effect"}, "U-937 [26]": {"test_system": "U-937", "assay": "Immunomodulatory activity in human U-937 cells assessed as effect on TNF-alpha expression level at 5 to 10 uM incubated for 24 hrs by radioimmunoprecipitation based dot-plot analysis", "assay_type": "functional, cell-based", "conditions": "dose 5-10 µM"}, "Klebsiella pneumoniae [27]": {"test_system": "Klebsiella pneumoniae", "assay": "Induction of morphological changes in carbapenem resistant Klebsiella pneumoniae ATCC BAA-1705 assessed as cellular destruction at MIC concentration incubated for 6 hrs by AFM analysis", "assay_type": "functional, organism-based"}, "Klebsiella pneumoniae [28]": {"test_system": "Klebsiella pneumoniae", "assay": "Antibiofilm activity against Klebsiella pneumoniae assessed as biofilm eradication at 1 times of MIC incubated for 24 hrs by CV staining based analysis relative to control", "assay_type": "functional"}, "Rattus norvegicus [29]": {"species": "Rattus norvegicus", "assay": "Induction of wound healing in surgically-induced Albino Wistar rat wound model assessed as reduction in inflammatory cell infiltration at 10 uM measured after 11 days by H&E staining based analysis", "assay_type": "functional", "conditions": "time 11.0 day"}, "Staphylococcus aureus [30]": {"test_system": "Staphylococcus aureus", "assay": "Antibacterial activity against methicillin-resistant Staphylococcus aureus assessed as induction of cellular damage at MIC concentration incubated for 30 mins by SYTO9/PI staining based fluorescence microscopic analysis", "assay_type": "functional, organism-based"}, "Pseudomonas aeruginosa [31]": {"test_system": "Pseudomonas aeruginosa", "assay": "Antibacterial activity against Pseudomonas aeruginosa assessed as induction of cellular damage at MIC concentration incubated for 30 mins by SYTO9/PI staining based fluorescence microscopic analysis", "assay_type": "functional, organism-based"}, "Rattus norvegicus [32]": {"species": "Rattus norvegicus", "assay": "Induction of wound healing in surgically-induced Albino Wistar rat wound model assessed as proper formation of blood vessels at 10 uM measured after 11 days by H&E staining based analysis", "assay_type": "functional", "conditions": "time 11.0 day"}, "Escherichia coli [33]": {"test_system": "Escherichia coli", "assay": "Induction of morphological changes in Escherichia coli assessed as cellular destruction at MIC concentration incubated for 6 hrs by SEM analysis", "assay_type": "functional, organism-based"}, "Pseudomonas aeruginosa [34]": {"test_system": "Pseudomonas aeruginosa", "assay": "Antibacterial activity against Pseudomonas aeruginosa assessed as cell division block by measuring bacterial filamentation at 0.5 to 1 times of MIC incubated for 30 mins by SYTO9/PI staining based fluorescence microscopic analysis", "assay_type": "functional, organism-based"}, "U-937 [35]": {"test_system": "U-937", "assay": "Immunomodulatory activity in human U-937 cells assessed as effect on IL-6 expression level at 5 to 10 uM incubated for 24 hrs by radioimmunoprecipitation based dot-plot analysis", "assay_type": "functional, cell-based", "conditions": "dose 5-10 µM"}, "Escherichia coli [36]": {"test_system": "Escherichia coli", "assay": "Induction of morphological changes in Escherichia coli assessed as membrane perturbation at MIC concentration incubated for 60 mins by SEM analysis", "assay_type": "functional, organism-based"}, "Erythrocyte": {"test_system": "Erythrocyte", "assay": "Cytotoxicity against human RBC assessed as less damage to cells at 12.5 to 25 uM by SEM analysis", "assay_type": "toxicity, cell-based", "conditions": "dose 12.5-25 µM"}},
  "note": "The source made the active and inactive calls. The calls are words filed in the database; no cut-off is given here.",
  "data": [
    {"substance": "H-FLPIIKWVKKFFWRWR-OH", "values": [
      {"measurement": "Activity", "setting": "Klebsiella pneumoniae [1]", "value": "Dose-Dependent Effect"},
      {"measurement": "Activity", "setting": "RAW264.7", "value": "Active"},
      {"measurement": "Activity", "setting": "Staphylococcus aureus [2]", "value": "Active"},
      {"measurement": "Activity", "setting": "Klebsiella pneumoniae [3]", "value": "Active"},
      {"measurement": "Activity", "setting": "Escherichia coli [4]", "value": "Active"},
      {"measurement": "Activity", "setting": "Klebsiella pneumoniae [5]", "value": "~62", "unit": "%"},
      {"measurement": "viability at 24 h, 12.5 µM", "setting": "[6]", "value": "> 85", "unit": "%"},
      {"measurement": "Activity", "setting": "Cell membrane [7]", "value": "Active"},
      {"measurement": "Activity", "setting": "Klebsiella pneumoniae [8]", "value": "Active"},
      {"measurement": "Activity", "setting": "Staphylococcus aureus [9]", "value": 62.7, "unit": "%"},
      {"measurement": "Activity", "setting": "NMDF", "value": "Active"},
      {"measurement": "Activity", "setting": "Escherichia coli [10]", "value": "Active"},
      {"measurement": "Activity", "setting": "Cell membrane [11]", "value": "Active"},
      {"measurement": "Activity", "setting": "Staphylococcus aureus [12]", "value": "Active"},
      {"measurement": "Activity", "setting": "Staphylococcus aureus [13]", "value": "Active"},
      {"measurement": "Activity", "setting": "Klebsiella pneumoniae [14]", "value": 51.78, "unit": "%"},
      {"measurement": "Activity", "setting": "Klebsiella pneumoniae [15]", "value": "~70", "unit": "%"},
      {"measurement": "hemolysis at 0.5 h, 25 µM", "setting": "[16]", "value": 20.4, "unit": "%"},
      {"measurement": "Activity", "setting": "Escherichia coli [17]", "value": "Active"},
      {"measurement": "MIC", "setting": "Pseudomonas aeruginosa [18]", "value": 4, "unit": "µM"},
      {"measurement": "MBC", "setting": "Pseudomonas aeruginosa [19]", "value": 6, "unit": "µM"},
      {"measurement": "Activity", "setting": "Pseudomonas aeruginosa [20]", "value": "Active"},
      {"measurement": "Activity", "setting": "Staphylococcus aureus [21]", "value": "~70", "unit": "%"},
      {"measurement": "Activity", "setting": "U-937 [22]", "value": "Dose-Dependent Effect"},
      {"measurement": "Activity", "setting": "Escherichia coli [23]", "value": "Active"},
      {"measurement": "half-life at 1000 µM", "setting": "[24]", "value": "~24", "unit": "h"},
      {"measurement": "Activity", "setting": "Staphylococcus aureus [25]", "value": "Tde"},
      {"measurement": "Activity", "setting": "U-937 [26]", "value": "Active"},
      {"measurement": "Activity", "setting": "Klebsiella pneumoniae [27]", "value": "Active"},
      {"measurement": "Activity", "setting": "Klebsiella pneumoniae [28]", "value": "<=78.28%"},
      {"measurement": "Activity", "setting": "Rattus norvegicus [29]", "value": "Active"},
      {"measurement": "Activity", "setting": "Staphylococcus aureus [30]", "value": "Active"},
      {"measurement": "Activity", "setting": "Pseudomonas aeruginosa [31]", "value": "Active"},
      {"measurement": "Activity", "setting": "Rattus norvegicus [32]", "value": "Active"},
      {"measurement": "Activity", "setting": "Escherichia coli [33]", "value": "Active"},
      {"measurement": "Activity", "setting": "Pseudomonas aeruginosa [34]", "value": "Active"},
      {"measurement": "Activity", "setting": "U-937 [35]", "value": "Active"},
      {"measurement": "Activity", "setting": "Escherichia coli [36]", "value": "Active"},
      {"measurement": "Activity", "setting": "Erythrocyte", "value": "Non-Toxic"}
    ]}
  ]
}
